Among the test systems are NCI/ADR-RES ovarian; MDA-N; NCI-H460 lung; ACHN renal; NCI-H226 lung; SNB-75 CNS; IGROV1 ovarian; MDA-MB-435; BT-549 breast; HCT-116 colon; SK-MEL-5 melanoma; PC-3 prostate; KM12 colon; NCI-H522 lung; MALME-3M melanoma; SF-295 CNS; DU-145 prostate; A498 renal; RXF 393 renal; RPMI-8226 leukemia.
What all share (test): NCI tumour cell line growth inhibition, 48 h

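Assay format: 96-well plates, 48-hour exposure. Definition used: TGI = concentration required for complete inhibition of growth.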

As for `C=C(C)[C@H]1C[C@@H]2O[C@@](O)(/C(C)=C\C(=O)/C=C(/C)C[C@H]3OC(=O)[C@@]24O[C@H]34)[C@@H]1O`, the TGI in the assay with NCI/ADR-RES ovarian, in the assay with MDA-N, in the assay with NCI-H460 lung, in the assay with ACHN renal, in the assay with NCI-H226 lung and with SNB-75 CNS was greater than 100 µM each time. Also, the TGI in the assay with IGROV1 ovarian, with MDA-MB-435, in the assay with BT-549 breast, with HCT-116 colon, in the assay on SK-MEL-5 melanoma and with PC-3 prostate was greater than 100 µM each time. In addition, the TGI in the assay on KM12 colon, in the assay on NCI-H522 lung, in the assay on MALME-3M melanoma, in the assay with SF-295 CNS, with DU-145 prostate and in the assay with A498 renal was greater than 100 µM in each case. The figures for the TGI with RXF 393 renal and in the assay with RPMI-8226 leukemia were 97.6 µM and greater than 100 µM, respectively.
Take `C/C(=N/c1[nH]c(=O)cc2c1C(=O)CC2)N(C)C`: the TGI in the assay with NCI/ADR-RES ovarian, in the assay on MDA-N, in the assay with NCI-H460 lung, with ACHN renal, with NCI-H226 lung and in the assay with SNB-75 CNS was greater than 200 µM throughout. Further, the TGI in the assay on IGROV1 ovarian, with MDA-MB-435, with BT-549 breast, in the assay on HCT-116 colon, in the assay on SK-MEL-5 melanoma and with PC-3 prostate was greater than 200 µM in each case. Further, the TGI in the assay with KM12 colon, in the assay on NCI-H522 lung, in the assay on MALME-3M melanoma, with SF-295 CNS, with DU-145 prostate and in the assay with A498 renal was greater than 200 µM in each case. Moreover, the TGI in the assay on RXF 393 renal and with RPMI-8226 leukemia was greater than 200 µM in each case.
On to `COc1cc(C2S/C(=C/c3ccccc3)C(=O)N2c2cc(Cl)c(Cl)cc2Cl)cc(OC)c1OC` (stereo not given), for which the TGI with NCI/ADR-RES ovarian was greater than 100 µM; with MDA-N it was greater than 100 µM; in the assay on NCI-H460 lung, greater than 100 µM; in the assay on ACHN renal, greater than 100 µM; in the assay on NCI-H226 lung, greater than 100 µM; in the assay with SNB-75 CNS it was 19.1 µM. The TGI in the assay on IGROV1 ovarian is greater than 100 µM; in the assay on MDA-MB-435, greater than 100 µM; in the assay on BT-549 breast, greater than 74.4 µM; with HCT-116 colon, greater than 75 µM; in the assay on SK-MEL-5 melanoma, greater than 100 µM; in the assay with PC-3 prostate, greater than 100 µM. The TGI with KM12 colon was greater than 78.3 µM; in the assay on NCI-H522 lung, greater than 66.5 µM; in the assay with MALME-3M melanoma, greater than 84.4 µM; with SF-295 CNS, greater than 100 µM; in the assay on DU-145 prostate, greater than 100 µM; with A498 renal, greater than 78 µM. Further, the TGI is greater than 100 µM with RXF 393 renal and greater than 62.4 µM in the assay with RPMI-8226 leukemia.
Turning to `CC(C)(C)C1(O)C=C(O)C(=O)N1NC(=O)c1ccccc1Nc1ccccc1` (stereo not given), the TGI with NCI/ADR-RES ovarian, in the assay with MDA-N, in the assay with NCI-H460 lung, in the assay with ACHN renal, in the assay on NCI-H226 lung and in the assay on SNB-75 CNS was greater than 100 µM each time. Besides, the TGI in the assay on IGROV1 ovarian, in the assay with MDA-MB-435, with BT-549 breast, in the assay with HCT-116 colon, with SK-MEL-5 melanoma and in the assay with PC-3 prostate was greater than 100 µM each time. Further, the TGI is greater than 100 µM in the assay on KM12 colon; 81.2 µM in the assay on NCI-H522 lung; greater than 100 µM with MALME-3M melanoma; greater than 100 µM with SF-295 CNS; greater than 100 µM in the assay on DU-145 prostate; greater than 100 µM in the assay with A498 renal. The TGI with RXF 393 renal and with RPMI-8226 leukemia was greater than 100 µM throughout.
Consider `CCC12CC(c3ccccc3)C(C(=O)N1)C(=O)N2` (stereo not given), for which the TGI in the assay on NCI/ADR-RES ovarian, with MDA-N, in the assay on NCI-H460 lung, in the assay with ACHN renal, with NCI-H226 lung and with SNB-75 CNS was greater than 100 µM throughout. Also, the TGI in the assay on IGROV1 ovarian, in the assay with MDA-MB-435, in the assay on BT-549 breast, with HCT-116 colon, with SK-MEL-5 melanoma and in the assay with PC-3 prostate was greater than 100 µM throughout. The TGI with KM12 colon, in the assay with NCI-H522 lung, with MALME-3M melanoma, in the assay on SF-295 CNS, in the assay with DU-145 prostate and in the assay on A498 renal was greater than 100 µM each time. The TGI with RXF 393 renal and in the assay with RPMI-8226 leukemia was greater than 100 µM each time.
On to `O=C(Nc1sccc1S(=O)(=O)c1ccc(Cl)cc1)c1ccccc1`, for which the TGI with NCI/ADR-RES ovarian, with MDA-N, in the assay with NCI-H460 lung, in the assay with ACHN renal, in the assay on NCI-H226 lung and with SNB-75 CNS was greater than 100 µM in each case. Further, the TGI in the assay with IGROV1 ovarian, in the assay on MDA-MB-435, with BT-549 breast, in the assay with HCT-116 colon, in the assay with SK-MEL-5 melanoma and with PC-3 prostate was greater than 100 µM each time. The TGI in the assay with KM12 colon, with NCI-H522 lung, in the assay on MALME-3M melanoma, in the assay on SF-295 CNS, in the assay on DU-145 prostate and with A498 renal was greater than 100 µM each time. Further, the TGI with RXF 393 renal and in the assay on RPMI-8226 leukemia was greater than 100 µM each time.
